This is an account of results in paper PMC7663597, “Structure–Activity Relationship of Aloperine Derivatives as New Anti–Liver Fibrogenic Agents” (Molecules, 2020).

Counter-ions that a name gives are not always drawn. Marks after values point to notes of the source that are not given here.

One series has as its system COL1A1 promotor. The experiment in a line: COL1A1 promotor luciferase reporter gene assay in TGF-β1-treated LX-2 cells. It is filed as cell-based, human. As to conditions: for inhibition at 40 µM / inhibition at 80 µM: Homo sapiens, LX-2, 24 h; for inhibition at 40 µM: 24 h with TGF-β1, read-out: Inhibition Percentage 40 μM (inhibition rate of COL1A1 promotor's activity); for inhibition at 80 µM: 24 h with TGF-β1, read-out: Inhibition Percentage 80 μM (inhibition rate of COL1A1 promotor's activity). As to the method: A single luciferase reporter gene detection model was applied to evaluate the inhibitory effects of all target compounds on the expression of COL1A1 promotor in human hepatic stellate LX-2 cells at the concentrations of 40 and 80 μM, taking EGCG as the positive control. The LX-2 cell lines were transfected with COL1A1 promotor luciferase plasmid pGL4.17-COL1A1P for 24 h, then simultaneously treated with TGF-β1 and a tested compound for 24 h.
Cells were maintained on Dulbecco’s Modified Eagle’s medium (DMEM), laid on 96-well plate. DMEM medium was supplemented with 10% fetal bovine serum (FBS) at 37 °C humidified atmosphere with 5% CO2. Furthermore, serum-free culture was required until the cells were confluent at 90−95%. 24 h later the cells were treated with a tested compound (40 and 80 μM) for 24 h. The COL1A1 promotor activity was detected by the Bright-Glo luciferase assay system. Alternatively, to test the acute effects of compound on luciferase activity, 24 h later the cells were lysed and the lysate was treated with a tested compound (80 μM) for 2 h, then the luciferase was detected by the Bright-Glo luciferase assay system (Promega, Madison, WI, USA).

By melting point is commonly meant the temperature, or range, at which the solid turns liquid. For `O=C(CN1CCCC2=C[C@H]3C[C@H](CN4CCCC[C@H]34)[C@@H]21)NC1CCOCC1` (as salt: hydrochloride) [4b, 12N-N′-(Tetrahydro-2H-pyran-4-yl)carbamoylmethyl aloperine hydrochloride], the melting point lay within 199 to 201 °C.

One may read the inhibition as the percentage by which the read-out fell short of the control. For the molecule `CCNC(=O)CN1CCCC2=C[C@H]3C[C@H](CN4CCCC[C@H]34)[C@@H]21` [4a, 12N-N′-Ethylcarbamoylmethyl aloperine], the melting point was 69 to 71 °C. Besides, in the series on COL1A1 promotor, the inhibition at 40 µM was 7.1 ± 25.6% and the inhibition at 80 µM was determined as 33.1 ± 1.6%.

Turning to `O=C(CN1CCCC2=C[C@H]3C[C@H](CN4CCCC[C@H]34)[C@@H]21)NC1CCOCC1` [4b, 12N-N′-(Tetrahydro-2H-pyran-4-yl)carbamoylmethyl aloperine hydrochloride], in the series on COL1A1 promotor, the inhibition at 40 µM came out at 19 ± 3.8% and the inhibition at 80 µM turned out to be 29.8 ± 10%.

Molecule `O=C(CN1CCCC2=C[C@H]3C[C@H](CN4CCCC[C@H]34)[C@@H]21)NC12CC3CC(CC(C3)C1)C2` [4c, 12N-N′-Adamantylcarbamoylmethyl aloperine] yielded a melting point of 176 to 178 °C. Also, in the series with COL1A1 promotor, the inhibition at 40 µM stood at 23.7 ± 7.7% and the inhibition at 80 µM was 39.2 ± 1.2%.

`O=C(CN1CCCC2=C[C@H]3C[C@H](CN4CCCC[C@H]34)[C@@H]21)Nc1ccccc1` [4d, 12N-N′-Phenylcarbamoylmethyl aloperine] had a melting point of 66 to 68 °C. Moreover, in the series with COL1A1 promotor, the inhibition at 40 µM is 18.6 ± 8.6% and the inhibition at 80 µM came out at 28.3 ± 2.8%.

The molecule `O=C(CN1CCCC2=C[C@H]3C[C@H](CN4CCCC[C@H]34)[C@@H]21)Nc1ccc(F)cc1` [4e, 12N-N′-(4-Fluorophenyl)carbamoylmethyl aloperine] came in with a melting point of 119 to 121 °C. Further, in the series with COL1A1 promotor, the inhibition at 40 µM is 21.4 ± 1.5% and the inhibition at 80 µM turned out to be 26.5 ± 0.5%.

For `Cc1cccc(NC(=O)CN2CCCC3=C[C@H]4C[C@H](CN5CCCC[C@H]45)[C@@H]32)c1` [4f, 12N-N′-(3-Methylphenyl)carbamoylmethyl aloperine], the melting point was 40 to 42 °C. For the same molecule, in the series with COL1A1 promotor, the inhibition at 40 µM was 21.2 ± 0.4% and the inhibition at 80 µM is 33.8 ± 8%.

The molecule `O=C(CN1CCCC2=C[C@H]3C[C@H](CN4CCCC[C@H]34)[C@@H]21)Nc1cccc(OC(F)(F)F)c1` [4g, 12N-N′-(m-Trifluoromethoxyphenyl)carbamoylmethyl aloperine] showed a melting point of 50 to 52 °C. Also, in the series on COL1A1 promotor, the inhibition at 40 µM came out at 67.8 ± 14.9% and the inhibition at 80 µM came out at 95.5 ± 5.5%.

`COC(=O)c1ccc(C)c(NC(=O)CN2CCCC3=C[C@H]4C[C@H](CN5CCCC[C@H]45)[C@@H]32)c1` [4j, 12N-N′-(2-Methyl-5-methoxycarbonylphenyl)carbamoylmethyl aloperine] returned a melting point of 75 to 77 °C. Also, in the series with COL1A1 promotor, the inhibition at 40 µM was 3.8 ± 6.1% and the inhibition at 80 µM amounted to 32.4 ± 2.7%.

On to `Cc1cc(NC(=O)CN2CCCC3=C[C@H]4C[C@H](CN5CCCC[C@H]45)[C@@H]32)cc(C)c1C` [4k, 12N-N′-(3,4,5-Trimethylphenyl)carbamoylmethyl aloperine], for which the melting point is 183 to 185 °C. Moreover, in the series on COL1A1 promotor, the inhibition at 40 µM turned out to be 50.1 ± 6.9% and the inhibition at 80 µM stood at 70.7 ± 1.5%.

The molecule `O=C(CN1CCCC2=C[C@H]3C[C@H](CN4CCCC[C@H]34)[C@@H]21)Nc1cccc2ncccc12` [4l, 12N-N′-(5-Quinolyl)carbamoylmethyl aloperine] returned a melting point of 74 to 76 °C. For the same molecule, in the series on COL1A1 promotor, the inhibition at 40 µM amounted to 31.5 ± 2.6% and the inhibition at 80 µM worked out at 22.4 ± 16.1%.

As for `CN(C(=O)CN1CCCC2=C[C@H]3C[C@H](CN4CCCC[C@H]34)[C@@H]21)c1ccccc1` [4m], the melting point is 73 to 75 °C. In the series on COL1A1 promotor, the inhibition at 40 µM was found to be 19.9 ± 5.2% and the inhibition at 80 µM was determined as 34.6 ± 2.5%.

On to `O=C(CN1CCCC2=C[C@H]3C[C@H](CN4CCCC[C@H]34)[C@@H]21)N1CCCC1` [4o, 12N-N′-(1-Pyrrolidinyl)carbamoylmethyl aloperine], for which the melting point is 78 to 80 °C. Further, in the series on COL1A1 promotor, the inhibition at 40 µM worked out at 16.5 ± 9.8% and the inhibition at 80 µM came out at 36.7 ± 9.9%.

For `O=C(CN1CCCC2=C[C@H]3C[C@H](CN4CCCC[C@H]34)[C@@H]21)NS(=O)(=O)c1ccccc1` [7a, 12N-N′-Benzenesulfonyl carbamoylmethyl aloperine], the melting point is 113 to 115 °C. For the same molecule, in the series with COL1A1 promotor, the inhibition at 40 µM amounted to 21.5 ± 4.3% and the inhibition at 80 µM came out at 17.1 ± 6.3%.

For `O=C(CN1CCCC2=C[C@H]3C[C@H](CN4CCCC[C@H]34)[C@@H]21)NS(=O)(=O)c1cccc(C(F)(F)F)c1` [7b, 12N-N′-3-Trifluoromethylbenzenesulfonyl carbamoylmethyl aloperine], the melting point was in the range of 105 to 107 °C. Also, in the series on COL1A1 promotor, the inhibition at 40 µM was 23.5 ± 13.5% and the inhibition at 80 µM is 20.2 ± 1.9%.

The molecule `O=C(CN1CCCC2=C[C@H]3C[C@H](CN4CCCC[C@H]34)[C@@H]21)NS(=O)(=O)c1ccc(Br)c(C(F)(F)F)c1` [7c, 12N-N′-(4-Bromo-3-trifluoromethylbenzenesulfonyl)carbamoylmethyl aloperine] displayed a melting point of 79 to 81 °C. Besides, in the series with COL1A1 promotor, the inhibition at 40 µM worked out at 32.9 ± 3.4% and the inhibition at 80 µM was 31.8 ± 3.1%.

The molecule `O=C(CN1CCCC2=C[C@H]3C[C@H](CN4CCCC[C@H]34)[C@@H]21)NS(=O)(=O)c1ccc2ccccc2c1` [7d] gave a melting point of 93 to 95 °C. In addition, in the series with COL1A1 promotor, the inhibition at 40 µM came to 18.8 ± 5.2% and the inhibition at 80 µM was 9.4 ± 3.7%.

`CCS(=O)(=O)NCC(=O)N1CCCC2=C[C@H]3C[C@H](CN4CCCC[C@H]34)[C@@H]21` [10a, 12N-N′-Ethylsulfonylaminoacetyl aloperine] yielded a melting point of 145 to 147 °C. For the same molecule, in the series on COL1A1 promotor, the inhibition at 40 µM was determined as 34 ± 7% and the inhibition at 80 µM came to 34.9 ± 14.7%.

For the molecule `CCCCS(=O)(=O)NCC(=O)N1CCCC2=C[C@H]3C[C@H](CN4CCCC[C@H]34)[C@@H]21` [10b, 12N-N′-n-Butylsulfonylaminoacetyl aloperine], the melting point was 98 to 100 °C. For the same molecule, in the series on COL1A1 promotor, the inhibition at 40 µM was 41.1 ± 9.6% and the inhibition at 80 µM was found to be 23.7 ± 22.7%.

`O=C(CNS(=O)(=O)c1ccccc1)N1CCCC2=C[C@H]3C[C@H](CN4CCCC[C@H]34)[C@@H]21` [10c, 12N-N′-Benzenesulfonylaminoacetylaloperine] showed a melting point of 63 to 65 °C. Besides, in the series on COL1A1 promotor, the inhibition at 40 µM amounted to 23.7 ± 8.3% and the inhibition at 80 µM was found to be 20.2 ± 6.4%.

Molecule `O=C(CNS(=O)(=O)c1cccc(Br)c1)N1CCCC2=C[C@H]3C[C@H](CN4CCCC[C@H]34)[C@@H]21` [10d, 12N-N′-m-Bromobenzenesulfonylaminoacetyl aloperine] showed a melting point of 101 to 103 °C. For the same molecule, in the series on COL1A1 promotor, the inhibition at 40 µM came to 28.5 ± 12.3% and the inhibition at 80 µM turned out to be 27.1 ± 10.1%.

For `O=C(CNS(=O)(=O)c1cccc(C(F)(F)F)c1)N1CCCC2=C[C@H]3C[C@H](CN4CCCC[C@H]34)[C@@H]21` [10e, 12N-N′-m-Trifluoromethylbenzenesulfonylaminoacetyl aloperine], the melting point was 91 to 93 °C. In the series on COL1A1 promotor, the inhibition at 40 µM turned out to be 29.7 ± 5.1% and the inhibition at 80 µM is 26.7 ± 21.3%.

As for `O=C(CNS(=O)(=O)c1cccc(OC(F)(F)F)c1)N1CCCC2=C[C@H]3C[C@H](CN4CCCC[C@H]34)[C@@H]21` [10f, 12N-N′-m-Trifluoromethoxybenzenesulfonylaminoacetyl aloperine], the melting point is 81 to 83 °C. In addition, in the series with COL1A1 promotor, the inhibition at 40 µM came out at 43.4 ± 15.9% and the inhibition at 80 µM was determined as 41.4 ± 7.4%.

For the molecule `O=C(O[C@@H]1Cc2c(O)cc(O)cc2O[C@@H]1c1cc(O)c(O)c(O)c1)c1cc(O)c(O)c(O)c1` [EGCG, reference compound], the “Inhibition Percentage (inhibition rate of COL1A1 promotor's activity)” value with COL1A1 promotor (at the concentration of 25 μM (positive control)) was 27.5 ± 7.9^e %.

As for `C1=C2CCCN[C@H]2[C@@H]2C[C@H]1[C@H]1CCCCN1C2` [compound 1, Aloperine], in the series on COL1A1 promotor, the inhibition at 40 µM worked out at 4.7 ± 3.7% and the inhibition at 80 µM is 2.6 ± 5.2%.
